Experimental data: the supplement of paper PMC11208160

Assay: recombinant barcode read abundance after kanamycin selection (control-corrected) (log10(CPM+1)); higher = more efficient recombination; sequences stand for … in AGTGCAGAGAAAATCGGCCAGTTTTCTCTGCCTGCAGTCCGCATGCCGT…AGATTTATGCAGCGGACTGCCTTTCTCCCAAAGTGATAAACCGGACAGTATCATGGACCGGTTTTCCCGGTAATCCGTATTTGCAAGGTTGGTTTCACT; site = the 11-nt target
Procedure, shortened: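 Pooled E. coli screen pairing targets with IS621 bridge RNA target-binding loops. Each oligo (promoter, target, barcode, J23119-driven first 104 bridge RNA bases) was Gibson-cloned into a vector with the remaining 73 bp and T7-inducible recombinase, then co-electroporated with a donor plasmid. Two replicates each were plated on chloramphenicol/ampicillin LB agar (control) or chloramphenicol/ampicillin/kanamycin with 0.1 mM IPTG. Recombination efficiency is recombinant-junction barcode counts as CPM, averaged, control-corrected, reported as log10(CPM+1).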
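Further: IS621 recombinase and bridge RNA in Escherichia coli cells.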

Sequence	recombinant barcode read abundance (log10)
CCTTGGACTTGGGTTCTAACCTGTTGCCT (site CCTTGCTCTAG)	0.084
CCTTGGACTTGGGTTCTAACCTGTTGCCT (site CCTTGGACTAG)	0.427
CCTTTGTCTTGGGTTCTAACCTGTTGCTT (site CCTTTGACTAA)	0.155
CCTTTGTCTTGGGTTCTAACCTGTTGCTT (site CCTTTGTCTAA)	0.243
CGAAAATCTTGGGTTCTAACCTGTTGCCT (site CGAAAATCTAG)	0.0664
CGAAAATCTTGGGTTCTAACCTGTTGCCT (site CGCAAATCTAG)	1.33
CGAAAATCTTGGGTTCTAACCTGTTGCCT (site CGGAAATCTAG)	0.18
CGAAAATCTTGGGTTCTAACCTGTTGCCT (site CGTAAATCTAG)	0.128
CGAAGCTCTTGGGTTCTAACCTGTTGCCT (site CGAAGCTCTAG)	1.44
CGAAGCTCTTGGGTTCTAACCTGTTGCCT (site CGCAGCTCTAG)	0.211
CGAAGCTCTTGGGTTCTAACCTGTTGCCT (site CGGAGCTCTAG)	0.108
CGAAGCTCTTGGGTTCTAACCTGTTGCCT (site CGTAGCTCTAG)	0.223
CGAATCCCTTGGGTTCTAACCTGTTGCCT (site CGAATCACTAG)	0.107
CGAATCCCTTGGGTTCTAACCTGTTGCCT (site CGAATCCCTAG)	0.809
CGAATCCCTTGGGTTCTAACCTGTTGCCT (site CGAATCGCTAG)	0.0332
CGAATCCCTTGGGTTCTAACCTGTTGCCT (site CGAATCTCTAG)	0.117
CGACATCCTTGGGTTCTAACCTGTTGCCT (site CGACATCCTAG)	0.214
CGACATCCTTGGGTTCTAACCTGTTGCCT (site CGAGATCCTAG)	0.409
CGACCGACTTGGGTTCTAACCTGTTGCAG (site CGACCGACTCT)	0.42
CGACCGACTTGGGTTCTAACCTGTTGCAG (site CGATCGACTCT)	0.158
CGACGTACTTGGGTTCTAACCTGTTGCCT (site CGACGTACTAG)	0.151
CGACGTACTTGGGTTCTAACCTGTTGCCT (site CGCCGTACTAG)	0.226

Sequence	recombinant barcode read abundance (log10)
CGACGTACTTGGGTTCTAACCTGTTGCCT (site CGGCGTACTAG)	0.0649
CGACGTACTTGGGTTCTAACCTGTTGCCT (site CGTCGTACTAG)	0
CGACTGACTTGGGTTCTAACCTGTTGCCT (site CGACTGACTAG)	0.229
CGACTGACTTGGGTTCTAACCTGTTGCCT (site CGTCTGACTTG)	0.0517
CGACTGCCTTGGGTTCTAACCTGTTGCGT (site CGAATGTCTAC)	0.527
CGACTGCCTTGGGTTCTAACCTGTTGCGT (site CGACTGCCTAC)	2.09
CGAGCAGCTTGGGTTCTAACCTGTTGCCT (site CGAGCAGCTAG)	0.395
CGAGCAGCTTGGGTTCTAACCTGTTGCCT (site CGCGCAGCTAG)	0.152
CGAGCAGCTTGGGTTCTAACCTGTTGCCT (site CGGGCAGCTAG)	0.519
CGAGCAGCTTGGGTTCTAACCTGTTGCCT (site CGTGCAGCTAG)	0.0197
CGAGGGTCTTGGGTTCTAACCTGTTGCCT (site CGAGGGACTAG)	0.0535
CGAGGGTCTTGGGTTCTAACCTGTTGCCT (site CGAGGGCCTAG)	0.279
CGAGGGTCTTGGGTTCTAACCTGTTGCCT (site CGAGGGGCTAG)	0.0907
CGAGGGTCTTGGGTTCTAACCTGTTGCCT (site CGAGGGTCTAG)	1.87
CGAGGGTCTTGGGTTCTAACCTGTTGCTT (site AGAGGGTCTAA)	0.172
CGAGGGTCTTGGGTTCTAACCTGTTGCTT (site CGAGGGTCTAA)	1.82
CGAGGGTCTTGGGTTCTAACCTGTTGCTT (site GGAGGGTCTAA)	0.413
CGAGGGTCTTGGGTTCTAACCTGTTGCTT (site TGAGGGTCTAA)	0.147
CGAGGTTCTTGGGTTCTAACCTGTTGCCT (site CGAGGTTCTAG)	1.06
CGAGGTTCTTGGGTTCTAACCTGTTGCCT (site CGCGGTTCTAG)	0.212
CGAGTCCCTTGGGTTCTAACCTGTTGCAG (site ATCTAAACTAG)	0.137
CGAGTCCCTTGGGTTCTAACCTGTTGCAG (site CGAGTCCCTCT)	2.15

Sequence	recombinant barcode read abundance (log10)
CGAGTGTCTTGGGTTCTAACCTGTTGCTA (site CGAGTGTCTTA)	1.96
CGAGTGTCTTGGGTTCTAACCTGTTGCTA (site GATCACCCTAT)	0.0951
CGATCATCTTGGGTTCTAACCTGTTGCCT (site CGATCATCTAG)	0.103
CGATCATCTTGGGTTCTAACCTGTTGCCT (site CGCTCATCTAG)	0.0503
CGATCATCTTGGGTTCTAACCTGTTGCCT (site CGGTCATCTAG)	0.173
CGATCATCTTGGGTTCTAACCTGTTGCCT (site CGTTCATCTAG)	0.0823
CGATCCACTTGGGTTCTAACCTGTTGCCT (site AGATCCACTAG)	0.0256
CGATCCACTTGGGTTCTAACCTGTTGCCT (site CGATCCACTAG)	0.0891
CGATCCACTTGGGTTCTAACCTGTTGCCT (site GGATCCACTAG)	1.56
CGATCCACTTGGGTTCTAACCTGTTGCCT (site TGATCCACTAG)	0.0673
CGATCTCCTTGGGTTCTAACCTGTTGCAC (site ACTCACTCTAG)	0.0376
CGATCTCCTTGGGTTCTAACCTGTTGCAC (site CGATCTCCTGT)	0.303
CGATGACCTTGGGTTCTAACCTGTTGCAT (site CGATGACCTAT)	1.48
CGATGACCTTGGGTTCTAACCTGTTGCAT (site CGATGGCCTAT)	0.107
CGATGGCCTTGGGTTCTAACCTGTTGCAT (site CGATGACCTAT)	0.388
CGATGGCCTTGGGTTCTAACCTGTTGCAT (site CGATGGCCTAT)	0.433
CGATTAGCTTGGGTTCTAACCTGTTGCCG (site ATTCACACTAC)	0.0236
CGATTAGCTTGGGTTCTAACCTGTTGCCG (site CGATTAGCTCG)	0.536
CGATTATCTTGGGTTCTAACCTGTTGCCT (site CGATTAACTAG)	0.25
CGATTATCTTGGGTTCTAACCTGTTGCCT (site CGATTACCTAG)	0.162
CGATTATCTTGGGTTCTAACCTGTTGCCT (site CGATTAGCTAG)	0.0752
CGATTATCTTGGGTTCTAACCTGTTGCCT (site CGATTATCTAG)	0.0534

Sequence	recombinant barcode read abundance (log10)
CGCAAGCCTTGGGTTCTAACCTGTTGCAT (site CGCAAGCCTAT)	0.0608
CGCAAGCCTTGGGTTCTAACCTGTTGCAT (site CGTAAGCCTAT)	0
CGCAGCCCTTGGGTTCTAACCTGTTGCAT (site CGCAGCCCTAT)	0.462
CGCAGCCCTTGGGTTCTAACCTGTTGCAT (site CGGAGCCCTAT)	0.0663
CGCAGCTCTTGGGTTCTAACCTGTTGCCT (site CGAAGCTCTAG)	0.0165
CGCAGCTCTTGGGTTCTAACCTGTTGCCT (site CGCAGCTCTAG)	0.0301
CGCAGCTCTTGGGTTCTAACCTGTTGCCT (site CGGAGCTCTAG)	0.0445
CGCAGCTCTTGGGTTCTAACCTGTTGCCT (site CGTAGCTCTAG)	0.511
CGCCCTCCTTGGGTTCTAACCTGTTGCAT (site CGCCATCCTAT)	0.0837
CGCCCTCCTTGGGTTCTAACCTGTTGCAT (site CGCCCTCCTAT)	0.362
CGCCCTCCTTGGGTTCTAACCTGTTGCAT (site CGCCGTCCTAT)	0.117
CGCCCTCCTTGGGTTCTAACCTGTTGCAT (site CGCCTTCCTAT)	0.0322
CGCCGCCCTTGGGTTCTAACCTGTTGCCT (site AGCCGCCCTAT)	0.447
CGCCGCCCTTGGGTTCTAACCTGTTGCCT (site CGCCGCCCTAG)	0.18
CGCCTCTCTTGGGTTCTAACCTGTTGCCT (site CGCCTCACTAG)	0.0921
CGCCTCTCTTGGGTTCTAACCTGTTGCCT (site CGCCTCCCTAG)	0.211
CGCCTCTCTTGGGTTCTAACCTGTTGCCT (site CGCCTCGCTAG)	0.307
CGCCTCTCTTGGGTTCTAACCTGTTGCCT (site CGCCTCTCTAG)	0.0707
CGCGAATCTTGGGTTCTAACCTGTTGCTT (site CGCGAATCTAA)	0.0373
CGCGAATCTTGGGTTCTAACCTGTTGCTT (site CGCGGGTCTAA)	0.168
